Here are results for two compounds from patent US6011046A, “Quinone compound, its production and use as antioxidant” (Takeda Chemical Industries, Ltd., priority 1995, dated 2000).

Assay [1] has as its system lipoperoxide formed in the brain homogenate. Description: Lipoperoxide formation inhibitory effect (thiobarbituric acid (TBA) method, brain homogenate). The format is biochemical, Wistar male rats. The note with it: rat cerebral cortex homogenate supernatant, 37° C., 30 minutes, pH 7.4, malondialdehyde at 532 nm. As for the experimental part: The lipoperoxide formed in the brain homogenate was quantified by the thiobarbituric acid (TBA) method of Stocks et al. (Cli. Sci. Mol. Med. 47, 215 (1974)). The cerebral cortex was removed from Wistar male rats (10 weeks old), and homogenized in ice-cooled phosphate physiological saline buffer (40 mM KH2 PO4 /K2 HPO4, 0.142M NaCl, pH 7.4). The homogenate was centrifuged at 1,000×g for 10 minutes, and the supernatant of the homogenate was used for the experiment. A solution of the test compound in ethanol (10 μl) was added to the supernatant (1 ml), and the mixture was incubated at 37° C. for 30 minutes. The reaction was stopped by adding 35% perchloric acid solution (200 μl). The reaction mixture was centrifuged at 13,000× g for 10 minutes, and 1% thiobarbituric acid solution (250 μl) was added to the supernatant (1.0 ml). The mixture was heated at 100° C. for 15 minutes, and then the amount of malondialdehyde formed by decomposition of the lipoperoxide was determined by colorimetry (532 nm).

For another assay, the system named is Na+ channel site 1. It is filed as binding, SD male rats. As to conditions: [3H]-saxitoxin 2 nM, rat forebrain homogenate, 37° C., 30 minutes.
The next assay has as its system Na+ channel site 2. The arrangement: species or system SD male rats. The note with it: [3H]-batrachotoxin 2 nM, rat forebrain homogenate, 37° C., 45 minutes; read-out: IC50 (Na+ channel binding, site 2).

The IC50 is the midpoint of a concentration-inhibition curve. vitamin E [reference compound] displayed an IC50 in assay [1] of 203 ± 43 µM.
For the compound `CC1=C(C)C(=O)C(C[C@](C)(O)CN2CCC(c3ccccc3)CC2)=C(C)C1=O` [compound (A), (S)-2-[2-Hydroxy-2-methyl-3-(4-phenylpiperidin-1-yl)propyl]-3,5,6-trimethyl-1,4-benzoquinone], the “effect on site 1 of Na channels” value with Na+ channel site 1 was “no effect”. Further, the IC50 in assay [1] was determined as 3.5 ± 0.56 µM; with Na+ channel site 2 it was 0.9 µM.
